Source: patent US20140010806A1, “Treatment of Ocular Diseases” (priority 2012, published 2014)

Biological target: NF-κB
Assay: NF-κB-bla THP-1 β-lactamase reporter assay, activation of NF-κB by TNFα or LPS
Format: cell-based, human
Settings: positive control assays; 1 hour β-lactamase substrate incubation
From the text: Reduction of inflammation. Inhibition of NF-κB by 17α-ethynylandrost-5-ene-3β,7β,17β-triol in vitro. A number of compounds were used to inhibit activation of NF-κB by TNF-α or LPS in human cells in vitro. Activation of NF-κB increases expression of a number of genes that mediate inflammation. This protocol used human THP-1 cells, which are human mononuclear blood cells with a monocyte phenotype. The cell line, referred to as NF-κB-bla THP-1, contained a β-lactamase reporter gene under the control of the NF-κB response element (Invitrogen, CellSensor™, product No. K1176). In this cell line, the β-lactamase reporter gene is stably integrated in the THP-1 cells. This cell line was used to detect agonists or antagonists of the NF-κB signaling pathway. These NF-κB-bla THP-1 cells respond to the presence of tumor necrosis factor alpha (TNFα) or bacterial lipopolysaccharide (LPS) by increased expression of the β-lactamase reporter gene. The level of β-lactamase enzyme activity was measured by fluorescence resonance energy transfer ratiometric detection. […]
The NF-κB-bla THP-1 cells were maintained by passaging or feeding as needed. […] The cells were plated at 20,000 cells/well in a 384-well Black-wall, clear bottom assay plates (Costar #3712-TC low fluorescence background plates) approximately 24 hours before adding either TNFα at 10 ng/mL or LPS at 0.2 ng/mL to activate NF-κB. […]

- EC50 concentration for TNFα, activation of NF-κB: 0.20 ng/mL
Substance: TNFα
